Results taken from patent publication US20200239530A1, “COMPOUNDS AND METHODS OF MODULATING PROTEIN DEGRADATION” (Vividion Therapeutics, Inc., priority 2017, published 2020).
Each block holds one compound with its values, some of them ahead of it.

Assays:
Assay in all cases: Cysteine liganding, probe competition
Format in all cases: binding
UniProt A1L020 = target: T1, UniProt A1L020 (Homo sapiens, UniProt A1L020)
T1 construct: Cells were resuspended in cold PBS on ice and sonicated with a probe sonicator to achieve lysis; endogenous in cells
Excerpt: (§1) The following 96-well sample prep protocol was used for sample preparation.

UniProt Q6ZNB6 = target: T2, UniProt Q6ZNB6 (Homo sapiens, UniProt Q6ZNB6); details: for percent inhibition: 100 uM
T2 construct: Cells were resuspended in cold PBS on ice and sonicated with a probe sonicator to achieve lysis; endogenous in cells
T2 sequence (Q6ZNB6 1-911): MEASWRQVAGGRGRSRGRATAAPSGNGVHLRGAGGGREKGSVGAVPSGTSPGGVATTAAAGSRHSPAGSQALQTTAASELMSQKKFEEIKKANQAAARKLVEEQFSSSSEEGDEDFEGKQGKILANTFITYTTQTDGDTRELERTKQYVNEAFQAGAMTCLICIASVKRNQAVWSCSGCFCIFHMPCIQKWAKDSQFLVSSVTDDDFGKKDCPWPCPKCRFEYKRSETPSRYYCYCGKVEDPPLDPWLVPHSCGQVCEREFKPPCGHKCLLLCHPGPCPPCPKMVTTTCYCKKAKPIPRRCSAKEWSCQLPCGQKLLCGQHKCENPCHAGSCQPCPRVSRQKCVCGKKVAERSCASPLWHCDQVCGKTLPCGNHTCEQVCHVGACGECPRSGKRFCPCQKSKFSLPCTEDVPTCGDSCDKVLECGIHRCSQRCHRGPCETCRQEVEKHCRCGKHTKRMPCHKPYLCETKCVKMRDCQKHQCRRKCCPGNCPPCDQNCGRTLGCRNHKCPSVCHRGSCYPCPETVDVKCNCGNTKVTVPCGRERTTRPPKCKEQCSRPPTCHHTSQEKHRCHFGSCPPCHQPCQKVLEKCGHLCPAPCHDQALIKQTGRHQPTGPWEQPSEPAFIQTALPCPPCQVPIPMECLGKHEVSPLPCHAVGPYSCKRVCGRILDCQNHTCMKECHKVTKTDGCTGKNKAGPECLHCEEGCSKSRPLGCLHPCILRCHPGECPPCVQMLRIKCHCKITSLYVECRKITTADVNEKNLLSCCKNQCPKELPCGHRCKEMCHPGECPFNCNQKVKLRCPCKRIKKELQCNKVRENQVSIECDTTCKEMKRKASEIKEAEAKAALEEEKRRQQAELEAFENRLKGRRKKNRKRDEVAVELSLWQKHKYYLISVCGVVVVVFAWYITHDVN
Excerpt: as §1

UniProt Q8IY92 = target: T3, UniProt Q8IY92 (Homo sapiens, UniProt Q8IY92)
T3 construct: 200 μL of lysate containing 5 mg/ml proteome was treated with 2 μL of 100× compound stock; endogenous in cells
Excerpt: as §1

UniProt Q969K3 = target: T4, UniProt Q969K3 (Homo sapiens, UniProt Q969K3)
T4 construct: 200 μL of lysate containing 5 mg/ml proteome was treated with 2 μL of 100× compound stock; endogenous in cells
Excerpt: as §1

UniProt Q9BR09 = target: T5, UniProt Q9BR09 (Homo sapiens, UniProt Q9BR09); details: read-out: percent inhibition
T5 construct: Cells were resuspended in cold PBS on ice and sonicated with a probe sonicator to achieve lysis; endogenous in cells
Excerpt: as §1

UniProt Q9H992 = target: T6, UniProt Q9H992 (Homo sapiens, UniProt Q9H992)
T6 construct: Cells were resuspended in cold PBS on ice and sonicated with a probe sonicator to achieve lysis; endogenous in cells
Excerpt: as §1

UniProt Q9HBE1 = target: T7, UniProt Q9HBE1 (Homo sapiens, UniProt Q9HBE1)
T7 construct: Cells were resuspended in cold PBS on ice and sonicated with a probe sonicator to achieve lysis; endogenous in cells
Excerpt: as §1

UniProt Q9HCE7 = target: T8, UniProt Q9HCE7 (Homo sapiens, UniProt Q9HCE7)
T8 construct: 200 μL of lysate containing 5 mg/ml proteome was treated with 2 μL of 100× compound stock; endogenous in cells
Excerpt: as §1

UniProt Q86UD3 = target: T9, UniProt Q86UD3 (Homo sapiens, UniProt Q86UD3)
T9 construct: Cells were resuspended in cold PBS on ice and sonicated with a probe sonicator to achieve lysis; endogenous in cells
T9 sequence (Q86UD3 1-253): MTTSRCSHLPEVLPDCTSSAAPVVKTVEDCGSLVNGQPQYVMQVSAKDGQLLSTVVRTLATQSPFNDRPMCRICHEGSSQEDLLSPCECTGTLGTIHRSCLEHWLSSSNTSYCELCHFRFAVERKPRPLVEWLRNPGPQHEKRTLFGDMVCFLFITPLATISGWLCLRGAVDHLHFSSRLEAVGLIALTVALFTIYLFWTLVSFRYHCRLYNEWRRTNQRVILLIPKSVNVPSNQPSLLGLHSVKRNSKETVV
Excerpt: as §1

UniProt Q969V5 = target: T10, UniProt Q969V5 (Homo sapiens, UniProt Q969V5); details: for percent inhibition: 100 uM
T10 construct: Cells were resuspended in cold PBS on ice and sonicated with a probe sonicator to achieve lysis; endogenous in cells
T10 sequence (Q969V5 1-352): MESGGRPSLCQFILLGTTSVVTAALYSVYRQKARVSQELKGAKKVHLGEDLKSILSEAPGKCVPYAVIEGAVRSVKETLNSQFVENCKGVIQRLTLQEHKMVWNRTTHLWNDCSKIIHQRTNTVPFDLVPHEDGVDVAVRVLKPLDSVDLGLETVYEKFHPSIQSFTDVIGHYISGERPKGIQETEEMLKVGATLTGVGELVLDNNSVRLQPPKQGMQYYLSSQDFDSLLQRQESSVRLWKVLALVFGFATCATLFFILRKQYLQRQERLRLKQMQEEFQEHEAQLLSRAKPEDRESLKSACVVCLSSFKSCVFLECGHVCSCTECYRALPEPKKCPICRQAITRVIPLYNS
Excerpt: as §1

UniProt Q9UPQ4 = target: T11, UniProt Q9UPQ4 (Homo sapiens, UniProt Q9UPQ4)
T11 construct: 200 μL of lysate containing 5 mg/ml proteome was treated with 2 μL of 100× compound stock; endogenous in cells
T11 sequence (Q9UPQ4 1-493): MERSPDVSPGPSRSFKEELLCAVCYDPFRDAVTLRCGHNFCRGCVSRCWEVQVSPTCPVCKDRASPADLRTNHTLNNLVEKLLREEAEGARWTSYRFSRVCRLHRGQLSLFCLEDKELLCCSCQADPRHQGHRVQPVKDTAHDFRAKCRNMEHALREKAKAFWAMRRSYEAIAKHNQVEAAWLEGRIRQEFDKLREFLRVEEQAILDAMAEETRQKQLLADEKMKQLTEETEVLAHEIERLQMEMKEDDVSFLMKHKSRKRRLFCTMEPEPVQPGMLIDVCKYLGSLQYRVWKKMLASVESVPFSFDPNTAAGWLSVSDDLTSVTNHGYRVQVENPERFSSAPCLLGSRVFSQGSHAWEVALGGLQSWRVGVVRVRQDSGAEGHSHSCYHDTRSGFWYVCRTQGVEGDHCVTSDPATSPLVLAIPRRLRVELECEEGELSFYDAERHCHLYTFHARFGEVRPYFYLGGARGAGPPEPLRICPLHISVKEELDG
Excerpt: as §1

T8 sequence (Q9HCE7 whole entry, change not shown): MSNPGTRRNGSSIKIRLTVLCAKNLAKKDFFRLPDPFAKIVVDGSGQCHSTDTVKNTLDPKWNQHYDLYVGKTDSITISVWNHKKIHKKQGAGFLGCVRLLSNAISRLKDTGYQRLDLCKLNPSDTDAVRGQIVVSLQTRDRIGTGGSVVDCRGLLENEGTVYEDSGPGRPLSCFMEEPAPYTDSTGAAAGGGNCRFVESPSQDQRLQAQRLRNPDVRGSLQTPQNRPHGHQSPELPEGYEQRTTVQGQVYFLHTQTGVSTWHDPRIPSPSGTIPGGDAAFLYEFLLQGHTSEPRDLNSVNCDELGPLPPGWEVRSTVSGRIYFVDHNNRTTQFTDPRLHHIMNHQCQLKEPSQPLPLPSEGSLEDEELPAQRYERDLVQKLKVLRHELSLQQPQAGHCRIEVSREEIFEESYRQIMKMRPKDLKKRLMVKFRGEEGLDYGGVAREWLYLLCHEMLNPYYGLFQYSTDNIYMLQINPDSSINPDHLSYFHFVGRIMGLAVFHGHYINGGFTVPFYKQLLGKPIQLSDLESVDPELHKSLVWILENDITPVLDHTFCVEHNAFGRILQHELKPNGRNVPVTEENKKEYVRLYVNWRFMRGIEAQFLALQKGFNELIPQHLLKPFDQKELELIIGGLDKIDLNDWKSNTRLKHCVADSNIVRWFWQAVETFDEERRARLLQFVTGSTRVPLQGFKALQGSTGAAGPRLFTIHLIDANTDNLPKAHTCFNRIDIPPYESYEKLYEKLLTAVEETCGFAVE
T7 sequence (Q9HBE1 whole entry, change not shown): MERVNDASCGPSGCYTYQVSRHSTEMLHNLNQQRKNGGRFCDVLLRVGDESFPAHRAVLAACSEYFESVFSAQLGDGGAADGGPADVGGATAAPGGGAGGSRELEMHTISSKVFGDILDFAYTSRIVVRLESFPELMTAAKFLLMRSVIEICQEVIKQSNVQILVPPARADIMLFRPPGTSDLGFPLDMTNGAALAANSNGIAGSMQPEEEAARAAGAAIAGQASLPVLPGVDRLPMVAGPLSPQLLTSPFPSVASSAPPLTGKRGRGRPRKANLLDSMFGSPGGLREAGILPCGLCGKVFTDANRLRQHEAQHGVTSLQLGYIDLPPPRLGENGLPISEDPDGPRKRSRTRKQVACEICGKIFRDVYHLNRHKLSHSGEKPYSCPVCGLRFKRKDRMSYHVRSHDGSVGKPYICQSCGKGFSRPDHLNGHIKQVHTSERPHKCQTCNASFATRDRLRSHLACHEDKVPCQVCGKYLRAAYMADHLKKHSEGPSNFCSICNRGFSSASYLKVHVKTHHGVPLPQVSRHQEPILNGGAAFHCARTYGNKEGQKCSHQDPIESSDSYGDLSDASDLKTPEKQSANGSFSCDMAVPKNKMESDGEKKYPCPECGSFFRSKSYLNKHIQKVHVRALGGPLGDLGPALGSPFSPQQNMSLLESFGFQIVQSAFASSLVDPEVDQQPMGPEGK
T1 sequence (A1L020 whole entry, change not shown): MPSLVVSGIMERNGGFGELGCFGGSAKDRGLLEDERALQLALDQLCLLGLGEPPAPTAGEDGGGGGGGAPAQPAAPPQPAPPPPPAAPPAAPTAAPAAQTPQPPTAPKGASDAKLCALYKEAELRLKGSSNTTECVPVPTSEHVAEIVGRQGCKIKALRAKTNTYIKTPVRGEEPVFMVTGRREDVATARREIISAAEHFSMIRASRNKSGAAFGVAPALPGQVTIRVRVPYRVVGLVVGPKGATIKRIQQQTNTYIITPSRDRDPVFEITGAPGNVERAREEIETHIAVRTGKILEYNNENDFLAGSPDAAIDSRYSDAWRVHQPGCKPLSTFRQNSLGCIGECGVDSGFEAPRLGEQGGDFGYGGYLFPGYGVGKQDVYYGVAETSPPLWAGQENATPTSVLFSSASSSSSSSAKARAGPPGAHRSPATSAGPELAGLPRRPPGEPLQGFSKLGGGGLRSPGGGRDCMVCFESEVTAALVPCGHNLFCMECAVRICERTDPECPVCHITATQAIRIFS
T6 sequence (Q9H992 whole entry, change not shown): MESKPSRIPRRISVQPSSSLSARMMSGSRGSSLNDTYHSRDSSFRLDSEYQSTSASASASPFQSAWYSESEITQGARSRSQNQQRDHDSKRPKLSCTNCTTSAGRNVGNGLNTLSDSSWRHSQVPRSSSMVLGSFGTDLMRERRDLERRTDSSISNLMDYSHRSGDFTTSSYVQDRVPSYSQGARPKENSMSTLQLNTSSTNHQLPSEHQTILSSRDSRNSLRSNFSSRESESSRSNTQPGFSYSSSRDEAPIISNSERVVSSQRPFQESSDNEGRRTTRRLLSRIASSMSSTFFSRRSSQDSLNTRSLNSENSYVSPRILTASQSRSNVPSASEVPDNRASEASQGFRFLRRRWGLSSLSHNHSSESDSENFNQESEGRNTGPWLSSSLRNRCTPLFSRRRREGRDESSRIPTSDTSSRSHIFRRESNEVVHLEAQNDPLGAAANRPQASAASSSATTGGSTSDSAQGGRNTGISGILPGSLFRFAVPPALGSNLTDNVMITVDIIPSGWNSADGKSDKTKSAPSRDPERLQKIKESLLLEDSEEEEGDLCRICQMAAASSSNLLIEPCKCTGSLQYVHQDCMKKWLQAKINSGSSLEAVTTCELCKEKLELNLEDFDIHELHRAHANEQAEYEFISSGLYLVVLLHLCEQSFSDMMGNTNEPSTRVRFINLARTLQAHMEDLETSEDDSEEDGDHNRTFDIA
T3 sequence (Q8IY92 whole entry, change not shown): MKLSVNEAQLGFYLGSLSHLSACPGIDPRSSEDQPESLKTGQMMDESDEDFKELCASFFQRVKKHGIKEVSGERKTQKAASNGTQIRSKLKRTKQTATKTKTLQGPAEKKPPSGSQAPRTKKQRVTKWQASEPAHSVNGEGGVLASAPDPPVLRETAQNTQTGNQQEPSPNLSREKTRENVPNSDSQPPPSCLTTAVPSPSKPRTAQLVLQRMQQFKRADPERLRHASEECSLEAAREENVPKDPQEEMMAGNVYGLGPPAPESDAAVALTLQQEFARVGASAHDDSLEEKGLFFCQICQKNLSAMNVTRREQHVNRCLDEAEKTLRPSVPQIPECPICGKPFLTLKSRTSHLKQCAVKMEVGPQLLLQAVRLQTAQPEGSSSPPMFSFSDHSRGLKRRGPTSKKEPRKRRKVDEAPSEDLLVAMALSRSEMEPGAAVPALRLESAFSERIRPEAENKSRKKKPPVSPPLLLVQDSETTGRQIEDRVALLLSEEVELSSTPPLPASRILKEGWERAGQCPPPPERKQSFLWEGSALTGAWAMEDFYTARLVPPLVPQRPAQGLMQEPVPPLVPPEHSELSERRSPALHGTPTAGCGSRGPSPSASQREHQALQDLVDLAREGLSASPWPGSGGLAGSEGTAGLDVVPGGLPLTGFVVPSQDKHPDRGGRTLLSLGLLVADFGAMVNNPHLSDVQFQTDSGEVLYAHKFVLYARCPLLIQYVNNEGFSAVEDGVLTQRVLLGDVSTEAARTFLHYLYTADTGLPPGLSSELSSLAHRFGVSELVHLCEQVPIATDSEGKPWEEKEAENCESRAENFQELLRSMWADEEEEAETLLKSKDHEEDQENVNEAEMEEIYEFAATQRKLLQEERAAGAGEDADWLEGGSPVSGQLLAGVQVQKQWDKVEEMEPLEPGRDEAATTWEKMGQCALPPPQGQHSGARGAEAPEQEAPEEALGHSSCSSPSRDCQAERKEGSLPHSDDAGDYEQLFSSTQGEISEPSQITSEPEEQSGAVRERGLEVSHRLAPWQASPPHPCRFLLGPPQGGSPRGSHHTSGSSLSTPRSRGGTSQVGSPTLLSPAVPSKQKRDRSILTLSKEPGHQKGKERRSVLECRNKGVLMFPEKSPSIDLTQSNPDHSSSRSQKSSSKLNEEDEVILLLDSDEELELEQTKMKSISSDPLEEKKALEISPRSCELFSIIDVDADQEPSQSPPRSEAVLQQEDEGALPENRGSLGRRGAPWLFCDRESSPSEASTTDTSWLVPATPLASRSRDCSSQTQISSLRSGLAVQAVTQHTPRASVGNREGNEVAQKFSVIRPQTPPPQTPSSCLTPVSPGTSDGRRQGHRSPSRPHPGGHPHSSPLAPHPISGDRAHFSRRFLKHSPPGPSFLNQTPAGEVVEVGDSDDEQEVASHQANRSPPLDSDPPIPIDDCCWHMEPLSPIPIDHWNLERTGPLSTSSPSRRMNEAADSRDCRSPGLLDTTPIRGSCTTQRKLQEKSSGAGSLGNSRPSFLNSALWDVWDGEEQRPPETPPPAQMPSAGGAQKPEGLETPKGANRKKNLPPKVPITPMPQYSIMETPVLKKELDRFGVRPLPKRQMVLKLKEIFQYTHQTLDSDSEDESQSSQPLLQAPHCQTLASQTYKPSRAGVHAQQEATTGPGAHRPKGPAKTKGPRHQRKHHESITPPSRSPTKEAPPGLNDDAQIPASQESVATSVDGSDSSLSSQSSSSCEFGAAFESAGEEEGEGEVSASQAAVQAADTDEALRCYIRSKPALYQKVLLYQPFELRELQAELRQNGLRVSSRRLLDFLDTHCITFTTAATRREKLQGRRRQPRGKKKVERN
T5 sequence (Q9BR09 whole entry, change not shown): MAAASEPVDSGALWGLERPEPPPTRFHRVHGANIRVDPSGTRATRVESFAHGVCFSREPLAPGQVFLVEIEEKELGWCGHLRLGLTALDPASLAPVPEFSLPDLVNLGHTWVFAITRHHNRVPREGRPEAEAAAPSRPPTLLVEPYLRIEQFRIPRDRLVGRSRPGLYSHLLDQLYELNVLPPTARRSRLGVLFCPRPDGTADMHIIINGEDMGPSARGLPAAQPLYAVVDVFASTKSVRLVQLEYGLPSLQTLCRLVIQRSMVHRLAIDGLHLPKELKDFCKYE

inhibition at 100 µM (UniProt A1L020; read-out: percent inhibition): 19%
percent inhibition (UniProt Q6ZNB6): 36%
inhibition at 100 µM (UniProt Q6ZNB6; read-out: percent inhibition): 21%
inhibition at 100 µM (UniProt Q8IY92; read-out: percent_inhibition): 10%
inhibition at 100 µM (UniProt Q969K3; read-out: percent_inhibition): 8%
inhibition at 500 µM (UniProt Q9BR09): 3%
inhibition at 100 µM (UniProt Q9H992; read-out: percent inhibition): 21%
inhibition at 100 µM (UniProt Q9HBE1; read-out: KB05_100 uM_percent_inhibition): 45%
inhibition at 100 µM (UniProt Q9HCE7; read-out: percent_inhibition): 52%
SMILES: C=CC(=O)N(c1ccccc1)c1ccc(Br)cc1 [KB05]

SMILES: COc1ccc2c(c1)CCCN2C(=O)CCl [KB02]
inhibition at 100 µM (UniProt Q86UD3; 100 uM, read-out: percent inhibition): 34%
inhibition at 500 µM (UniProt Q86UD3; 500 uM, read-out: percent inhibition): 77%
percent inhibition (UniProt Q969V5): 35%
inhibition at 100 µM (UniProt Q969V5; read-out: percent inhibition): 25%
inhibition at 500 µM (UniProt Q9BR09): 32%
inhibition at 100 µM (UniProt Q9UPQ4; 100 uM, read-out: KB02_100 uM_percent_inhibition): 10%
inhibition at 500 µM (UniProt Q9UPQ4; 500 uM, read-out: KB02_500 uM_percent_inhibition): 27%

SMILES: O=C(CCl)Nc1cc(C(F)(F)F)cc(C(F)(F)F)c1 [KBO3]
percent inhibition (UniProt A1L020; 100 uM): 52%
percent inhibition (UniProt Q6ZNB6): 20%
percent inhibition (UniProt Q86UD3; 500 uM): 66%
percent_inhibition (UniProt Q8IY92; 100 uM): 8%
percent_inhibition (UniProt Q969K3; 100 uM): 18%
percent inhibition (UniProt Q969V5): 38%
percent inhibition (UniProt Q9H992; 100 uM): 82%
KB03_100 uM_percent_inhibition (UniProt Q9HBE1; 100 uM): 72%
percent_inhibition (UniProt Q9HCE7; 100 uM): 71%
KB03_500 uM_percent_inhibition (UniProt Q9UPQ4; 500 uM): 32%
